Results on 9 compounds are retold here after US12091426B2, “Bifunctional degraders of hematopoietic progenitor kinase and therapeutic uses thereof” (Nurix Therapeutics, Inc., priority 2021, dated 2024).

For the experiment, the target named is T1, HPK1 (Homo sapiens, UniProt Q92918).
T1 construct: A HiBiT tag was introduced by CRISPR on the N terminus of HPK1 in Jurkat cells; host or cells: Jurkat cells (ATCC TIB-152), monoclonal line with CRISPR knock-in of HiBiT at the endogenous HPK1 locus
In words: HPK1 Cellular HiBit Degradation Assay. Type of experiment: cell-based. As to conditions: HiBiT HPK1 Jurkat cells, 24 hrs; for DC50: concentration at which 50% of HPK1 was remaining, read-out: DC50 Category; for Dmax: Jurkat, maximum degradation vs DMSO vehicle control, read-out: Dmax Category. As to the method:
HPK1 Cellular HiBit Degradation Assay
A HiBiT tag was introduced by CRISPR on the N terminus of HPK1 in Jurkat cells (ATCC® TIB-152) to allow quantitation of HPK1 protein levels in a monoclonal human cell line. Cells were plated at 1×10^6 cells/mL, 30 uL/well (3×10^4 cells/well) in complete RPMI 1640 (10% heat inactivated FBS, 1% L-glutamine) in 384-well assay plates (Corning, cat. no. 3570). HPK1 chimeric targeting molecules (CTMs) were added in an 11 point dilution series (11-point, 3.16-fold) with a final assay concentration range of 10 uM to 0.1 nM. The parental Jurkat cell line, with no HiBiT insertion, was included in the assay as a background control. Cell treated with a DMSO vehicle control was used to determine the maximum signal defining 100% HPK1 in the cell. Cells were incubated for 24 hrs at 37° C./5% CO2. Following incubation, 30 uL of complete Nano-Glo HiBiT Lytic Detection Reagent (Promega cat. no. N3040) was added. Cells were incubated for 10 min at room temperature and luminescence was read on an EnVision plate reader (Perkin Elmer, 0.1 sec per well). Viability was assessed in the same plate using Cell Titer Fluor (Promega) and read on an EnVision plate reader to ensure results were not the effect of cytotoxicity. Percent HPK1 remaining per sample was calculated as follows:
[formula] % HPK1 remaining values were plotted as a function of compound concentration and curves were fit using the Prism (GraphPad) equation “log(inhibitor) vs response−Variable slope (four parameters)”. Dmax values were calculated by identifying the lowest % remaining and subtracting from 100. DC50 values were determined by extrapolating from the curve the concentration at which 50% of HPK1 was remaining based on the DMSO control.
HiBiT HPK1 Jurkat cell lines were used to evaluate the total protein levels of HPK1 in a robust human cellular high throughput format. The level of HPK1 remaining following treatment with HPK1 CTMs is reported as Dmax (maximum degradation) achieved at 24 hours when compared to vehicle treated controls. […] These decreases were not a result of cytotoxicity measured by a viability assessment.
On the technique in general: With HiBiT, luminescence reflects the tagged protein that the partner subunit can reach.

T1 sequence (Q92918 whole entry): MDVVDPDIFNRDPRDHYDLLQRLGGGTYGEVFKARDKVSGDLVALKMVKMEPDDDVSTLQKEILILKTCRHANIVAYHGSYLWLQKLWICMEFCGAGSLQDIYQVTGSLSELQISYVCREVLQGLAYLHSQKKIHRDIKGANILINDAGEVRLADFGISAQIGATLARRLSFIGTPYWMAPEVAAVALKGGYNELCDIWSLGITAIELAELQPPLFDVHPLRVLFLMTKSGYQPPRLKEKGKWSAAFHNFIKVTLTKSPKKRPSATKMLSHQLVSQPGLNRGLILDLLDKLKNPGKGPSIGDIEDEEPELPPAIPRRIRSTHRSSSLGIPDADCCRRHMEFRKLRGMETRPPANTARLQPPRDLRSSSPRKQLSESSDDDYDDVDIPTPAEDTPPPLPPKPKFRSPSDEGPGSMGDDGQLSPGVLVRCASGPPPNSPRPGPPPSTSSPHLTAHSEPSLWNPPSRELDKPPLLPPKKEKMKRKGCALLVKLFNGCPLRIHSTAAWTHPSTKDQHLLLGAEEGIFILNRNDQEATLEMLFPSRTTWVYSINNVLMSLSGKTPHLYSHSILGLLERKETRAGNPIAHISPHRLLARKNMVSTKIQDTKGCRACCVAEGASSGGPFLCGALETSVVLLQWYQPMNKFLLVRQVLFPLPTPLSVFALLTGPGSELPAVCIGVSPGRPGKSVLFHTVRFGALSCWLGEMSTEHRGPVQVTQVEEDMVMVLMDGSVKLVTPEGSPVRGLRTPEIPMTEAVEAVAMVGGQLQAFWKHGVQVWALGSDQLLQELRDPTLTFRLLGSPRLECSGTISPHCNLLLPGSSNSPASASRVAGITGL

The term DC50 denotes the concentration at which degradation of the target reaches its halfway point. Usually Dmax stands for the largest share of the target that was removed. As for `CC(C)n1cnc2cc(-c3ccc4c(c3)N([C@H]3C[C@@H](N5CCCCC5)C3)C(=O)C43CCN(C(=O)[C@@H]4CCN(C(=O)[C@H]5CC[C@H](Nc6ccc(C(=O)NC7CCC(=O)NC7=O)nc6)CC5)C4)CC3)nc(Nc3ccccc3F)c21` (mixture of isomers) [Example 7, N-[(3RS)-2,6-dioxopiperidin-3-yl]-5-{1[(1R,4R)-4-[(3R)-3-[(6-{4-[(2-fluorophenyl)amino]-3-(propan-2-yl)-3H-imidazo[4,5-c]pyridin-6-yl}-2-oxo-1-[(1S,3S)-3-(piperidin-1-yl)cyclobutyl]-1,2-dihydrospiro[indole-3,4′-piperidin]-1′-yl)carbonyl]pyrrolidine-1-carbonyl]cyclohexyl]amino}pyridine-2-carboxamide], the DC50 is 500 to 1000 nM and the Dmax was 50 to 70%.

On to `CC(C)n1cnc2cc(-c3ccc4c(c3)N([C@H]3C[C@@H](N5CCCCC5)C3)C(=O)C43CCN(C(=O)[C@@H]4CCN(C(=O)[C@H]5CC[C@H](Nc6cccc(C7CCC(=O)NC7=O)n6)CC5)C4)CC3)nc(Nc3ccccc3F)c21` (mixture of isomers) [Example 8, (3RS)-3-(6-{1[(1R,4R)-4-[(3R)-3-[(6-{4-[(2-fluorophenyl)amino]-3-(propan-2-yl)-3H-imidazo[4,5-c]pyridin-6-yl}-2-oxo-1-[(1S,3S)-3-(piperidin-1-yl)cyclobutyl]-1,2-dihydrospiro[indole-3,4′-piperidin]-1′-yl)carbonyl]pyrrolidine-1-carbonyl]cyclohexyl]amino}pyridin-2-yl)piperidine-2,6-dione], for which the DC50 lay in the range of 500 to 1000 nM and the Dmax is 70 to 85%.

With `CC(C)n1cnc2cc(-c3ccc4c(c3)N([C@H]3C[C@@H](N5CCCCC5)C3)C(=O)C43CCN(C(=O)[C@@H]4CCN(C(=O)[C@H]5CC[C@H](Nc6cccc7c6C(=O)N(C6CCC(=O)NC6=O)C7=O)CC5)C4)CC3)nc(Nc3ccccc3F)c21` (mixture of isomers) [Example 9, 2-[(3RS)-2,6-dioxopiperidin-3-yl]-4-{[(1R,4R)-4-[(3R)-3-[(6-{4-[(2-fluorophenyl)amino]-3-(propan-2-yl)-3H-imidazo[4,5-c]pyridin-6-yl}-2-oxo-1-[(1S,3S)-3-(piperidin-1-yl)cyclobutyl]-1,2-dihydrospiro[indole-3,4′-piperidin]-1′-yl)carbonyl]pyrrolidine-1-carbonyl]cyclohexyl]amino}-2,3-dihydro-1H-isoindole-1,3-dione], the DC50 was in the range of 100 to 500 nM and the Dmax was greater than 85%.

In the case of `CC(C)n1cnc2cc(-c3ccc4c(c3)N([C@H]3C[C@@H](N5CCCCC5)C3)C(=O)C43CCN(C(=O)[C@@H]4CCN(C(=O)[C@H]5CC[C@H](Nc6cccc7c6C(=O)N(C6CCC(=O)NC6=O)C7=O)CC5)C4)CC3)nc(NC3CC3)c21` (mixture of isomers) [Example 10, 2-[(3RS)-2,6-dioxopiperidin-3-yl]-4-{[(1R,4R)-4-[(3R)-3-({6-[4-(cyclopropylamino)-3-(propan-2-yl)-3H-imidazo[4,5-c]pyridin-6-yl]-2-oxo-1-[(1S,3S)-3-(piperidin-1-yl)cyclobutyl]-1,2-dihydrospiro[indole-3,4′-piperidin]-1′-yl}carbonyl)pyrrolidine-1-carbonyl]cyclohexyl]amino}-2,3-dihydro-1H-isoindole-1,3-dione], the DC50 is less than 100 nM and the Dmax fell in the range of 70 to 85%.

For the compound `CC(C)n1cnc2cc(-c3ccc4c(c3)N([C@H]3C[C@@H](N5CCCCC5)C3)C(=O)C43CCN(C(=O)[C@@H]4CCN(C(=O)[C@H]5CC[C@H](Nc6cccc7c6C(=O)N(C6CCC(=O)NC6=O)C7=O)CC5)C4)CC3)nc(Nc3ccncc3F)c21` (mixture of isomers) [Example 11, 2-[(3RS)-2,6-dioxopiperidin-3-yl]-4-{[(1R,4R)-4-[(3R)-3-[(6-{4-[(3-fluoropyridin-4-yl)amino]-3-(propan-2-yl)-3H-imidazo[4,5-c]pyridin-6-yl}-2-oxo-1-[(1S,3S)-3-(piperidin-1-yl)cyclobutyl]-1,2-dihydrospiro[indole-3,4′-piperidin]-1′-yl)carbonyl]pyrrolidine-1-carbonyl]cyclohexyl]amino}-2,3-dihydro-1H-isoindole-1,3-dione], the DC50 was 100 to 500 nM and the Dmax is 50 to 70%.

`CC(C)n1cnc2cc(-c3ccc4c(c3)N([C@H]3C[C@@H](N5CCCCC5)C3)C(=O)C43CCN(C(=O)[C@@H]4CCN(C(=O)[C@H]5CC[C@H](Nc6cncc(C7CCC(=O)NC7=O)c6)CC5)C4)CC3)nc(Nc3ccccc3F)c21` (mixture of isomers) [Example 12, (3RS)-3-(5-{[(1R,4R)-4-[(3R)-3-[(6-{4-[(2-fluorophenyl)amino]-3-(propan-2-yl)-3H-imidazo[4,5-c]pyridin-6-yl}-2-oxo-1-[(1S,3S)-3-(piperidin-1-yl)cyclobutyl]-1,2-dihydrospiro[indole-3,4′-piperidin]-1′-yl)carbonyl]pyrrolidine-1-carbonyl]cyclohexyl]amino}pyridin-3-yl)piperidine-2,6-dione]: the DC50 is 500 to 1000 nM and the Dmax is 70 to 85%.

For `CC(C)n1cnc2cc(-c3ccc4c(c3)N([C@H]3C[C@@H](N5CCCCC5)C3)C(=O)C43CCN(C(=O)[C@@H]4CCN(C(=O)[C@H]5CC[C@H](Oc6ccc(C7CCC(=O)NC7=O)cn6)CC5)C4)CC3)nc(NC3CC3)c21` (mixture of isomers) [Example 16, (3RS)-3-(6-{[(1R,4R)-4-[(3R)-3-({6-[4-(cyclopropylamino)-3-(propan-2-yl)-3H-imidazo[4,5-c]pyridin-6-yl]-2-oxo-1-[(1S,3S)-3-(piperidin-1-yl)cyclobutyl]-1,2-dihydrospiro[indole-3,4′-piperidin]-1′-yl}carbonyl)pyrrolidine-1-carbonyl]cyclohexyl]oxy}pyridin-3-yl)piperidine-2,6-dione], the DC50 was 500 to 1000 nM and the Dmax was 70 to 85%.

Take `CC(C)n1cnc2cc(-c3ccc4c(c3)N([C@H]3C[C@@H](N5CCCCC5)C3)C(=O)C43CCN(C(=O)[C@@H]4CCN(C(=O)[C@H]5CC[C@H](Oc6ccc(C7CCC(=O)NC7=O)cn6)CC5)C4)CC3)nc(Nc3ccccc3F)c21` (mixture of isomers) [Example 17, (3RS)-3-(6-{1[(1R,4R)-4-[(3R)-3-[(6-{4-[(2-fluorophenyl)amino]-3-(propan-2-yl)-3H-imidazo[4,5-c]pyridin-6-yl}-2-oxo-1-[(1S,3S)-3-(piperidin-1-yl)cyclobutyl]-1,2-dihydrospiro[indole-3,4′-piperidin]-1′-yl)carbonyl]pyrrolidine-1-carbonyl]cyclohexyl]oxy}pyridin-3-yl)piperidine-2,6-dione]: the DC50 was less than 100 nM and the Dmax was greater than 85%.

For the compound `CC(C)n1cnc2cc(-c3ccc4c(c3)N([C@H]3C[C@@H](N5CCCCC5)C3)C(=O)C43CCN(C(=O)[C@@H]4CCN(C(=O)[C@H]5CC[C@H](Oc6ccc(C7CCC(=O)NC7=O)cn6)CC5)C4)CC3)nc(Nc3ccncc3F)c21` (mixture of isomers) [Example 18, (3RS)-3-(6-{[(1R,4R)-4-[(3R)-3-[(6-{4-[(3-fluoropyridin-4-yl)amino]-3-(propan-2-yl)-3H-imidazo[4,5-c]pyridin-6-yl}-2-oxo-1-[(1S,3S)-3-(piperidin-1-yl)cyclobutyl]-1,2-dihydrospiro[indole-3,4′-piperidin]-1′-yl)carbonyl]pyrrolidine-1-carbonyl]cyclohexyl]oxy}pyridin-3-yl)piperidine-2,6-dione], the DC50 lay within 100 to 500 nM and the Dmax fell in the range of 70 to 85%.
